Assays:
physchem = settings: octanol/water
Description: Partition coefficient (logP)

[1] = molecular target: T1, Monoamine oxidase B (MAO-B) (Bos taurus, UniProt P56560); test: in vitro; settings: cattle, bovine liver monoamine oxidase B
T1 sequence (P56560 whole entry): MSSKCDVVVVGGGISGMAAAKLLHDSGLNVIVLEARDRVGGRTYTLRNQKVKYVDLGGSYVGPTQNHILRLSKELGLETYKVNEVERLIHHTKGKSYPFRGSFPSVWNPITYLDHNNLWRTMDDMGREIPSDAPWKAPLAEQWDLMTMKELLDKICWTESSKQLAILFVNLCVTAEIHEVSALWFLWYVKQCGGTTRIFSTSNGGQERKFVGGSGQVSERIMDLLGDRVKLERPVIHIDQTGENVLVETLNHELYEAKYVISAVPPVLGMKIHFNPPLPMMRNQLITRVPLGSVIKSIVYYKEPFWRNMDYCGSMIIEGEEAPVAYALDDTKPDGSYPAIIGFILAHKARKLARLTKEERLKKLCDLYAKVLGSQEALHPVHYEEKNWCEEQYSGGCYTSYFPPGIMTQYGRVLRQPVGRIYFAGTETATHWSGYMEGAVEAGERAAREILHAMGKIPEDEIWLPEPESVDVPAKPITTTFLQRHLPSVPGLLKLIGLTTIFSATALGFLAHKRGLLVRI
Description: Km against bovine liver Monoamine oxidase B

[2] = molecular target: T2, Amine oxidase [flavin-containing] B (Bos taurus, UniProt P56560); settings: cattle
T2 sequence (P56560 whole entry): T1 sequence (P56560 whole entry)
Description: Kcat against bovine liver Monoamine oxidase B

[3] = molecular target: T2, Amine oxidase [flavin-containing] B; test: Ratio of Kcat versus Km was determined

SMILES	logP (physchem)	Km [1]	k cat [2]	Ratio [3]
CN1CC=C(c2ccccn2)CC1	1.24	900 µM	0.933 s⁻¹	60
CN1CC=C(c2cccnc2)CC1	1.44	1900 µM	1.12 s⁻¹	35
CN1CC=C(n2nccn2)CC1	1.13			
CN1CC=C(n2ccnc2)CC1	1.31			
CN1CC=C(n2ncc3ccccc32)CC1	2.85			850
CN1CC=C(c2ccc[nH]2)CC1	1.27			
CN1CC=C(n2cccc2)CC1	2.17			410
CN1CC=C(c2cccn2C)CC1	1.73			
CN1CC=C(c2ccncc2)CC1	1.24			6
CN1CC=C(n2ccnn2)CC1	1.13			
CN1CC=C(n2nnc3ccccc32)CC1	2.36			675
CN1CC=C(n2ccc3ccccc32)CC1	3.61			3350
CN1CC=C(n2cnc3ccccc32)CC1	2.54			220

Reference: ChEMBL document CHEMBL1132216, “Studies on the monoamine oxidase-B-catalyzed biotransformation of 4-azaaryl-1-methyl-1,2,3,6-tetrahydropyridine derivatives” (J Med Chem, 1999)
